Test results from the supplement of paper PMC10307832.

Tests used:
Test in all cases: relative viability (nuclei count vs DMSO), 5 days (fraction); higher = more cells survive
GSK-J4 + Luminespib = compound: CCOC(=O)CCNc1cc(N2CCc3ccccc3CC2)nc(-c2ccccn2)n1 [GSK-J4] + CCNC(=O)c1noc(-c2cc(C(C)C)c(O)cc2O)c1-c1ccc(CN2CCOCC2)cc1 [Luminespib] (partner 0.01 µM)
Outline: (§1)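 Lung cancer cell lines were seeded in 1536-well plates and dosed by pin tool the next day, with either a single drug or a fixed anchor-drug dose combined with five library-drug doses (not always all listed) spaced in √10 steps. Five days later, one step fixed the cells and stained their nuclei (final 0.05% Triton X-100, 1% formaldehyde, 1 ug/ml Hoechst), and nuclei were counted on 4× images. Relative viability is the nuclei count in treated wells divided by the count in vehicle wells, and each value is the median of duplicate plates.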

GSK-J4 + Crizotinib = compound: CCOC(=O)CCNc1cc(N2CCc3ccccc3CC2)nc(-c2ccccn2)n1 [GSK-J4] + C[C@@H](Oc1cc(-c2cnn(C3CCNCC3)c2)cnc1N)c1c(Cl)ccc(F)c1Cl [Crizotinib] (partner 1 µM)
Outline: as §1

GSK-J4 + Pemetrexed = compound: CCOC(=O)CCNc1cc(N2CCc3ccccc3CC2)nc(-c2ccccn2)n1 [GSK-J4] + Nc1nc2[nH]cc(CCc3ccc(C(=O)N[C@@H](CCC(=O)O)C(=O)O)cc3)c2c(=O)[nH]1 [Pemetrexed] (partner 0.2 µM)
Outline: as §1

AZ3146 + OSI-027 = compound: CN1CCC(CC1)OC2=CC(=C(C=C2)NC3=NC=C4C(=N3)N(C(=O)N4C)C5CCCC5)OC [AZ3146] + COc1cccc2cc(-c3nc([C@H]4CC[C@H](C(=O)O)CC4)n4ncnc(N)c34)[nH]c12 [OSI-027] (partner 0.5 µM)
Outline: as §1

Cell Line | relative viability (GSK-J4 + Luminespib; first compound 0.5 µM) | relative viability (GSK-J4 + Luminespib; first compound 1.581 µM) | relative viability (GSK-J4 + Luminespib; first compound 5 µM) | relative viability (GSK-J4 + Luminespib; first compound 15.81 µM) | relative viability (GSK-J4 + Luminespib; first compound 50 µM) | relative viability (GSK-J4 + Crizotinib; first compound 0.5 µM) | relative viability (GSK-J4 + Crizotinib; first compound 1.581 µM) | relative viability (GSK-J4 + Crizotinib; first compound 5 µM) | relative viability (GSK-J4 + Crizotinib; first compound 15.81 µM) | relative viability (GSK-J4 + Crizotinib; first compound 50 µM) | relative viability (GSK-J4 + Pemetrexed; first compound 0.5 µM) | relative viability (GSK-J4 + Pemetrexed; first compound 5 µM) | relative viability (GSK-J4 + Pemetrexed; first compound 15.81 µM) | relative viability (GSK-J4 + Pemetrexed; first compound 50 µM) | relative viability (AZ3146 + OSI-027; first compound 0.08 µM) | relative viability (AZ3146 + OSI-027; first compound 0.253 µM) | relative viability (AZ3146 + OSI-027; first compound 0.8 µM) | relative viability (AZ3146 + OSI-027; first compound 2.53 µM) | relative viability (AZ3146 + OSI-027; first compound 8 µM) | relative viability (GSK-J4 + Pemetrexed; first compound 1.581 µM)
EKVX | 0.824 | 0.725 | 0.977 | 0.755 | 0.811 | 0.755 | 0.883 | 0.927 | 0.91 | 0.889 | 0.351 | 0.426 | 0.418 | 0.315 | 0.72 | 0.653 | 0.629 | 0.63 | 0.687 | –
EMC-BAC-2 | 1.21 | 1.09 | 0.985 | 1.09 | 0.676 | 0.712 | 0.695 | 0.726 | 0.743 | 0.733 | 0.414 | – | 0.441 | 0.477 | 0.343 | 0.371 | 0.418 | 0.379 | 0.375 | 0.362
EPLC-272H | 0.263 | 0.408 | 0.346 | 0.203 | 0.173 | 0.956 | – | 1.14 | 0.816 | 0.915 | 0.36 | 0.319 | 0.295 | 0.3 | – | 0.277 | 0.272 | 0.309 | 0.308 | 0.294
H3255 | 0.752 | 0.726 | 0.693 | 0.827 | 0.683 | 0.869 | 0.767 | 0.855 | 0.764 | 0.642 | 0.649 | 0.491 | 0.503 | 0.502 | 0.654 | 0.483 | 0.594 | 0.612 | 0.638 | 0.551
HARA | 0.585 | – | – | 0.675 | 0.49 | 0.975 | 0.962 | – | 0.942 | 0.662 | 0.219 | – | 0.263 | 0.243 | 0.31 | 0.41 | 0.436 | 0.582 | 0.506 | 0.214
HCC-15 | 0.232 | – | 0.304 | 0.174 | 0.268 | 0.755 | 0.733 | 0.778 | 0.757 | 0.536 | 0.225 | 0.217 | 0.209 | 0.245 | 0.689 | 0.667 | 0.481 | 0.773 | 0.578 | 0.225
HCC-44 | 1.02 | 0.897 | – | 0.939 | 0.747 | 0.759 | 0.705 | 0.696 | 0.825 | 0.755 | 0.601 | 0.638 | 0.668 | 0.625 | 0.484 | 0.427 | 0.416 | 0.622 | 0.558 | 0.503
HCC-827 | 0.566 | 0.629 | 0.832 | 0.405 | 0.526 | 0.963 | 0.931 | 0.933 | 0.91 | 0.848 | 0.248 | 0.258 | 0.229 | 0.285 | 0.84 | 0.763 | 0.807 | 0.786 | 0.726 | 0.26
HOP-62 | 0.877 | 0.937 | 0.917 | 0.794 | 0.396 | 0.798 | 1 | 0.965 | 0.994 | 0.847 | 0.316 | 0.324 | 0.329 | 0.364 | 0.755 | 0.796 | 0.742 | 0.857 | 0.866 | 0.3
LC-2-ad | 0.851 | 0.889 | 0.701 | 0.886 | 0.54 | 0.554 | 0.426 | 0.375 | 0.41 | 0.427 | 0.288 | 0.247 | 0.267 | 0.272 | 0.694 | 0.781 | 0.801 | 0.92 | 0.819 | 0.281
LCLC-97TM1 | 0.725 | 0.722 | 0.773 | 0.415 | 0.256 | – | – | 0.455 | 0.269 | 0.323 | 0.15 | 0.198 | 0.148 | 0.181 | 0.501 | 0.585 | 0.364 | 0.415 | 0.396 | 0.153
LCLC-103H | 0.96 | 0.917 | 1.01 | 0.882 | 0.486 | 1.01 | 0.811 | 1.18 | 0.916 | 0.988 | 0.483 | 0.378 | 0.42 | 0.509 | 0.423 | 0.474 | 0.529 | 0.456 | 0.501 | 0.374
LK-2 | 0.191 | – | 0.151 | 0.193 | 0.159 | 0.256 | 0.212 | 0.203 | 0.191 | 0.244 | 0.281 | 0.329 | 0.226 | 0.172 | 0.227 | 0.181 | 0.146 | 0.206 | 0.178 | 0.239
LOU-NH91 | 0.347 | 0.329 | 0.254 | 0.267 | 0.246 | 0.756 | 0.711 | 0.674 | 0.695 | 0.712 | 0.39 | 0.36 | 0.346 | 0.441 | 0.726 | 0.61 | 0.7 | 0.702 | 0.745 | 0.381
LU99A | 0.201 | 0.267 | – | 0.244 | 0.223 | 0.571 | 0.534 | 0.618 | 0.581 | 0.474 | 0.16 | – | 0.178 | 0.166 | 0.28 | 0.306 | 0.309 | 0.317 | 0.228 | 0.158
LXF-289 | 0.648 | 0.639 | 0.785 | 0.627 | 0.507 | 0.71 | 0.768 | 0.776 | 0.806 | 0.753 | 0.835 | 0.931 | 0.805 | 0.813 | 0.775 | 0.704 | 0.77 | 0.781 | 0.77 | 0.776
NCI-H23 | 0.212 | 0.197 | 0.215 | 0.209 | 0.201 | 0.553 | – | 0.456 | 0.413 | 0.422 | 0.679 | 0.653 | 0.568 | 0.598 | 0.621 | 0.699 | 0.403 | 0.746 | 0.616 | 0.525
